Values of other authors, collected in patent US7838561B2, “Method for preventing or treating cardiac hypertrophy” (Wisconsin Alumni Research Foundation, priority 2004, dated 2010).
“Also recorded” adds a separate entry of the source. Where two headings read alike, the source gives them in different places.

Legend:
[1] = target: T1, RARα (Homo sapiens, UniProt P10276)
T1 sequence (P10276 1-462): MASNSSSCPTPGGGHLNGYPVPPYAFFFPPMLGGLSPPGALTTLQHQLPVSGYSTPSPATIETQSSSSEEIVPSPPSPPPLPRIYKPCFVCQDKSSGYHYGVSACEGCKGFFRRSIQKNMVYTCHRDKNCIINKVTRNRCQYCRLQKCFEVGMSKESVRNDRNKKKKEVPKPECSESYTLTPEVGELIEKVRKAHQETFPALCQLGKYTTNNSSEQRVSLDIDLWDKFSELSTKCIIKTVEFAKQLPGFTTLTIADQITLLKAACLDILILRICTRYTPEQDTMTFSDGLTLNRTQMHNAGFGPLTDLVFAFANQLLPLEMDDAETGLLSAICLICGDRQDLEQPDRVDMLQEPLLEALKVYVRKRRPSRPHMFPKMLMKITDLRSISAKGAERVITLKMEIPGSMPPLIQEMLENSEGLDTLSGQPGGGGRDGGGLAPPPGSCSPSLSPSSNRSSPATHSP

[2] = target: T2, RARβ (Homo sapiens, UniProt P10826)
T2 sequence (P10826 1-455): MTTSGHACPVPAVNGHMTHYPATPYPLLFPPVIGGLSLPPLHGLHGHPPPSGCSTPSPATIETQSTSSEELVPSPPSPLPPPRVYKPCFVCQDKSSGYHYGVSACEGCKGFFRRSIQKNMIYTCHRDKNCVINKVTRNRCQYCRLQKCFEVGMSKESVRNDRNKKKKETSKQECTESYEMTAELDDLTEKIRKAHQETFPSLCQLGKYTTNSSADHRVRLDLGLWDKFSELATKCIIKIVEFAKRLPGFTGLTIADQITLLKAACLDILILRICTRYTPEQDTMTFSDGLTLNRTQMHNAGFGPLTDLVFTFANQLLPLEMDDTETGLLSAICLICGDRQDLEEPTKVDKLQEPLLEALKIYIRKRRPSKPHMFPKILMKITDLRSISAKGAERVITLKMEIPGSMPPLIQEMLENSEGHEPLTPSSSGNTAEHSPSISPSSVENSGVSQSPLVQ

[3] = target: T3, RARγ (Homo sapiens, UniProt P13631)
T3 sequence (P13631 1-454): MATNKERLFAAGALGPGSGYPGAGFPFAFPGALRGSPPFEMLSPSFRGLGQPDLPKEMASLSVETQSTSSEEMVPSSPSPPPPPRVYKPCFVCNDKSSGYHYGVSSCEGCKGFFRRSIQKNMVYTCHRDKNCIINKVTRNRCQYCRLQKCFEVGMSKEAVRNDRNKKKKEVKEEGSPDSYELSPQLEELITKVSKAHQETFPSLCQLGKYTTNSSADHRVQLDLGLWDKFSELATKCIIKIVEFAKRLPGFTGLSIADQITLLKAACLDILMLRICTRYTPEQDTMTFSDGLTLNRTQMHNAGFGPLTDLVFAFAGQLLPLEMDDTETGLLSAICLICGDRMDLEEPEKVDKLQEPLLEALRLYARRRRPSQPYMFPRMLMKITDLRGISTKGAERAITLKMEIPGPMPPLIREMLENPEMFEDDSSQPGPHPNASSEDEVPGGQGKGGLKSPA

[4] = tested on: RARs
[5] = topical, 0, 1.44, 7.2, 36.0 μmol/kg/day, mice
[6] = tested on: human cervical cancer cell line ECE16-1
[7] = tested on: mouse limb bud chondrocytes
[8] = tested on: bone marrow granulocytic precursors; details: oral, 0.5 mg/kg/day for 10 days, mice
[9] = tested on: prostate carcinoma cell lines
[10] = target: T1, RARα; remark: listed apart in the source
[11] = target: T2, RARβ; remark: listed apart in the source
[12] = target: T3, RARγ; remark: listed apart in the source
[13] = tested on: acute promyelocytic leukemia; details: RA triggers differentiation
[14] = tested on: RAR and RXR
[15] = in vivo
[16] = target: RBP (Homo sapiens, UniProt P02753)
[17] = tested on: nuclear retinoid receptors
[18] = tested on: RARs; details: in vitro
[19] = tested on: AP-1
[20] = tested on: gastrulation-stage zebrafish embryo
[21] = ip, 15 mg/kg/d
[22] = tested on: rabbit HIG-82 synovial fibroblasts; details: 0.01 to 10 μM
[23] = tested on: mammary epithelial cell; details: 1 μM
[24] = 20 mg/kg/day, 7 days, subcutaneous, rats
[25] = tested on: testicular cells
[26] = tested on: testicular cells; details: rabbits, 2, 10, 50 mg/kg orally for 1 wk

Compound: Cc1ccc(C2=CCC(C)(C)c3ccc(C#Cc4ccc(C(=O)O)cc4)cc32)cc1 [AGN 193109]
- Kd [1]: 16 nM
- Kd [2]: 7 nM
- Kd [3]: 7 nM
- Receptor Specificity [4]: pan-RAR antagonist; also recorded: RARαβγ
- effect on TTNPB toxicity (cutaneous irritation, weight loss, mortality) [5]: counteracts the toxicity symptoms
- hormone action of RA in skin (later in development, single oral dose of 100 mg/kg): suppresses the hormone action of RA in skin
- placental transfer (pregnant mouse): readily crosses the placenta
- antagonism of retinoid-specific events in craniofacial development (pregnant mouse, 1 mg/kg single oral dose): sufficient to antagonize retinoid-specific events in craniofacial development
- partial agonist activity [6]: did not have partial agonist activity
- retinoid-mediated activities (proliferation, keratin & RARβ gene expression) ([6]; 10 nM, 100 nM): suppresses retinoid-mediated activities

Compound: Cc1ccc(C2=CC(C)(C)Oc3c(Br)cc(C(=O)Nc4ccc(C(=O)O)c(F)c4)cc32)cc1 [AGN 194301]
- Kd [1]: 3 nM
- Kd [2]: 320 nM
- Kd [3]: 7250 nM
- Receptor Specificity [4]: RARα
- differentiation of limb bud chondrocytes, Sox9 induction ([7]; 1 μM): overcome RA signaling and permit the differentiation of mouse limb bud chondrocytes

Compound: CCc1ccc(C2=CC(C)(C)Sc3ccc(C#Cc4ccc(C(=O)O)cc4)cc32)cc1 [AGN 194310]
- Kd [1]: 3 nM
- Kd [2]: 2 nM
- Kd [3]: 5 nM
- Receptor Specificity [4]: pan-RAR antagonist; also recorded: RARαβγ
- frequency of bone marrow granulocytic precursors [8]: sufficient to elevate the frequency of bone marrow granulocytic precursors
- signs of ill health or abnormal pathology [8]: did not show signs of ill health or abnormal pathology
- differentiation of limb bud chondrocytes, Sox9 induction ([7]; 50 nM): overcome RA signaling and permit the differentiation of mouse limb bud chondrocytes
- potency relative to all-trans-retinoic acid [9]: 12-22 times

Compound: CC1=C(/C=C/C(C)=C/C=C/C(C)=C/C(=O)O)C(C)(C)CCC1 [All-trans-retinoic acid]
- Receptor Specificity [4]: RARαβγ

Compound: CC1(C)CC=C(c2cnc3ccccc3c2)c2cc(C(=O)Nc3ccc(C(=O)O)cc3)ccc21 [BMS 614]
- Kd [1]: 2.5 nM
- RARβ Kd [2]: not bound
- RARγ Kd [3]: not bound
- agonist or antagonist action at RARα [10]: antagonist
- molar excess to RA at which RARα transactivation is antagonised [10]: 100 fold
- antagonism of RARβ transactivation [11]: at best modestly
- antagonism of RARγ transactivation [12]: no antagonism
- Receptor Specificity [4]: RARα

Compound: CC1(C)CC=C(c2ccccc2)c2cc(C(=O)Nc3ccc(C(=O)O)cc3)ccc21 [BMS 185411]
- Kd [1]: ~150 nM
- Kd [2]: ~1300 nM
- Kd [3]: ~20000 nM
- agonist or antagonist action at RARα [10]: antagonist
- agonist or antagonist action at RARβ [11]: agonist
- agonist or antagonist action at RARγ [12]: weak agonist
- Receptor Specificity [4]: RARα
- activity in the acute promyelocytic leukemia assay [13]: no activity

Compound: O=C(O)c1ccc2cc(-c3ccc(O)c(C45CC6CC(CC(C6)C4)C5)c3)ccc2c1 [CD437]
- binding to RARs and RXRs [14]: weakly bind

Compound: CC1=C(/C=C/C(C)=C/C=C/C(C)=C/C(=O)Nc2ccc(O)cc2)C(C)(C)CCC1 [Fenretinide, N-[4-hydroxyphenyl]retinamide]
- binding to RARs and RXRs [14]: weakly bind
- binding to RARs and RXRs ([14]; listed as 4-hydroxphenylretinamide): weakly
- concentrations of vitamin A and RBP in the bloodstream [15]: lower the concentrations of both vitamin A and retinol binding protein (RBP)
- symptoms of vitamin A insufficiency [15]: impaired dark vision adaptation and epithelial keratosis
- binding to RBP and effect on RBP-TTR [16]: binds to RBP, displacing RBP from transthyretin (TTR)
- trans-activation of the nuclear retinoid receptors [17]: poorly trans-activates the nuclear retinoid receptors

Compound: CCCCCCCOc1cc2c(cc1/C(C)=C/c1ccc(C(=O)O)cc1)C(C)(C)CCS2(=O)=O [Ro 41-5253]
- Kd [1]: 60 nM
- Kd [2]: 2400 nM
- Kd [3]: 3300 nM
- Receptor Specificity [4]: RARα

Compound: CCCCCCCOc1cc2c(cc1/C(C)=C/C=C/C(C)=C/C(=O)O)C(C)(C)CCS2(=O)=O [Ro 46-5471]
- Kd [1]: 27 nM
- Kd [2]: 5100 nM
- Kd [3]: 240 nM
- Receptor Specificity [4]: RARα

Compound: BMS 189453
- Kd [1]: ~15 nM
- Kd [3]: ~20 nM
- agonist or antagonist action at RARα [10]: antagonist
- agonist or antagonist action at RARβ [11]: weak RARβ agonist
- agonist or antagonist action at RARγ [12]: antagonist
- Receptor Specificity [4]: RARαγ
- transactivation of the RARs [18]: does not transactivate the RARs
- AP-1 activity [19]: represses AP-1 activity
- effect on myocardiogenesis [20]: suppress myocardiogenesis
- overt toxicity or hypovitaminosis A [21]: not observed
- inflammation and joint erosion ([21]; mouse and rat, two models): delayed the onset, severity, and progression of inflammation and joint erosion
- gene expression of pro-inflammatory collagenase [22]: suppresses gene expression of pro-inflammatory collagenase
- mammary epithelial cell growth [23]: inhibits mammary epithelial cell growth
- progression of experimental glomerulonephritis [24]: reduce the progression of experimental glomerulonephritis
- toxicity (eating or drinking, posturing or behavior, weight loss) [24]: did not show toxicity
- overt toxicity ([25]; 2, 10, 50 mg/kg doses): not overtly toxic
- testicular atrophy after ceasing treatment ([25]; 30 days after ceasing treatment, 2-50 mg/kg): testicular atrophy was seen at even low doses
- overt toxicity ([25]; rats, 240 mg/kg daily for 30 days): Overt toxicity was observed
- testicular toxicity ([25]; rats, 2, 10, 50 mg/kg for 1, 3, 7 days): caused the atrophy and degeneration of testicular cells
- testicular toxicity [26]: caused the atrophy and degeneration of testicular cells
